pIC50: −log10 of the molar value. Values after ≈ are worked out from the molar mass of the structure shown.

The values below come from ChEMBL document CHEMBL3232804, “Synthesis and evaluation of new diaryl ether and quinoline hybrids as potential antiplasmodial and antimicrobial agents” (Bioorg Med Chem Lett, 2014).

In one experiment the test system is Candida albicans. As to the kind of experiment: Antifungal activity against Candida albicans clinical isolate after 24 to 48 hrs by standard broth microdilution method. In kind it is functional.
A further experiment has as its system Sporothrix schenckii. Put plainly: Antifungal activity against Sporothrix schenckii clinical isolate after 72 to 96 hrs by standard broth microdilution method. The class given is functional.
The subject of a further experiment is Escherichia coli. As to the kind of experiment: Antimicrobial activity against Escherichia coli ATCC 9637 after 24 hrs by standard broth microdilution method. The class given is functional.
A further experiment has as its system Cryptococcus neoformans. As to the kind of experiment: Antifungal activity against Cryptococcus neoformans clinical isolate after 24 to 48 hrs by standard broth microdilution method. The class given is functional.
For experiment [1], the system named is Plasmodium falciparum. As to the kind of experiment: Antiplasmodial activity against chloroquine-resistant Plasmodium falciparum K1 infected after 72 hrs by Malaria SYBR Green I-staining based fluorescence assay. To be noted: K1, 72 h. In kind it is functional, organism-based.
Experiment [2] has as its system Plasmodium falciparum. As to the kind of experiment: Antiplasmodial activity against chloroquine-sensitive Plasmodium falciparum 3D7 infected after 72 hrs by Malaria SYBR Green I-staining based fluorescence assay. To be noted: 3D7, 72 h. In kind it is functional, organism-based.
In experiment [3] the test system is Trichophyton mentagrophytes. As to the kind of experiment: Antifungal activity against Trichophyton mentagrophytes clinical isolate after 72 to 96 hrs by standard broth microdilution method. The class given is functional.
A further experiment deals with Klebsiella pneumoniae. Put plainly: Antimicrobial activity against Klebsiella pneumoniae ATCC 27736 after 24 hrs by standard broth microdilution method. In kind it is functional.
Another experiment concerns Staphylococcus aureus. Put plainly: Antimicrobial activity against Staphylococcus aureus ATCC 25923 after 24 hrs by standard broth microdilution method. The class given is functional.
In a further experiment the test system is Candida parapsilosis. Put plainly: Antifungal activity against Candida parapsilosis ATCC […] after 72 to 96 hrs by standard broth microdilution method. In kind it is functional. To be noted: Lodderomyces parapsilosis.
In the next experiment the test system is Aspergillus fumigatus. As to the kind of experiment: Antifungal activity against Aspergillus fumigatus clinical isolate after 72 to 96 hrs by standard broth microdilution method. In kind it is functional.
A further experiment relates to Pseudomonas aeruginosa. As to the kind of experiment: Antimicrobial activity against Pseudomonas aeruginosa ATCC BAA-427 after 24 hrs by standard broth microdilution method. In kind it is functional.

For `COc1ccc(Oc2ccccc2N/C(=N/c2ccccc2)NCCCCNc2ccnc3cc(Cl)ccc23)cc1`, the minimum inhibitory concentration (MIC) is above 50 µg/mL with Candida albicans; 50 µg/mL (≈ 88.3 µM) in the experiment on Sporothrix schenckii; above 50 µg/mL in the experiment with Escherichia coli (ATCC 9637, 24 h); above 50 µg/mL in the experiment on Cryptococcus neoformans; above 50 µg/mL in experiment [3]; above 50 µg/mL in the experiment on Klebsiella pneumoniae (ATCC 27736, 24 h). In addition, the minimal inhibitory concentration (MIC) was above 50 µg/mL against Staphylococcus aureus (ATCC 25923, 24 h); above 50 µg/mL against Candida parapsilosis; 50 µg/mL (≈ 88.3 µM) in the experiment with Aspergillus fumigatus; above 50 µg/mL against Pseudomonas aeruginosa (ATCC BAA-427, 24 h). Also, the pIC50 in the experiment on Plasmodium falciparum [1] was below 6.00; with Plasmodium falciparum [2], 6.96.

`COc1ccc(Oc2ccccc2N/C(=N/c2ccccc2)NCCCNc2ccnc3cc(Cl)ccc23)cc1`: the minimal inhibitory concentration (MIC) against Candida albicans is 50 µg/mL (≈ 90.6 µM); in the experiment with Sporothrix schenckii it was 50 µg/mL (≈ 90.6 µM); with Escherichia coli (ATCC 9637, 24 h) it was 50 µg/mL (≈ 90.6 µM); against Cryptococcus neoformans it was above 50 µg/mL; in experiment [3], above 50 µg/mL; with Klebsiella pneumoniae (ATCC 27736, 24 h), above 50 µg/mL. Further, the minimal inhibitory concentration (MIC) in the experiment on Staphylococcus aureus (ATCC 25923, 24 h) was 50 µg/mL (≈ 90.6 µM); against Candida parapsilosis it was 50 µg/mL (≈ 90.6 µM); with Aspergillus fumigatus it was 50 µg/mL (≈ 90.6 µM); with Pseudomonas aeruginosa (ATCC BAA-427, 24 h), above 50 µg/mL. Also, the pIC50 in the experiment with Plasmodium falciparum [2] was 6.92.

Take `COc1cccc(OC)c1C(=O)N[C@@H]1C(=O)N2[C@@H]1SC(C)(C)[C@@H]2C(=O)O` [METHICILLIN]: the minimum inhibitory concentration (MIC) was above 50 µg/mL in the experiment on Escherichia coli (ATCC 9637, 24 h); above 50 µg/mL against Klebsiella pneumoniae (ATCC 27736, 24 h); 1.56 µg/mL (≈ 4.1 µM) with Staphylococcus aureus (ATCC 25923, 24 h); above 50 µg/mL with Pseudomonas aeruginosa (ATCC BAA-427, 24 h).

With `COC(=O)/C(C)=C/c1ccc(Oc2ccccc2N/C(=N/c2ccccc2)NC2CC2)cc1`, the MIC with Candida albicans is above 50 µg/mL; against Sporothrix schenckii, above 50 µg/mL; against Escherichia coli (ATCC 9637, 24 h) it was above 50 µg/mL; in the experiment on Cryptococcus neoformans, above 50 µg/mL; in experiment [3] it was above 50 µg/mL; in the experiment on Klebsiella pneumoniae (ATCC 27736, 24 h) it was 12.5 µg/mL (≈ 28.3 µM). Also, the minimum inhibitory concentration (MIC) in the experiment with Staphylococcus aureus (ATCC 25923, 24 h) was above 50 µg/mL; in the experiment on Candida parapsilosis, above 50 µg/mL; against Aspergillus fumigatus, above 50 µg/mL; with Pseudomonas aeruginosa (ATCC BAA-427, 24 h), above 50 µg/mL. For the same molecule, the negative logarithm of the IC50 (pIC50) in the experiment with Plasmodium falciparum [1] and in the experiment on Plasmodium falciparum [2] was below 5.92 in each case.

Regarding `C[C@@H]1[C@H](O)[C@@H](C)/C=C/C=C/C=C/C=C/C=C/C=C/C=C/[C@H](O[C@@H]2O[C@H](C)[C@@H](O)[C@H](N)[C@@H]2O)C[C@@H]2O[C@](O)(C[C@@H](O)C[C@@H](O)[C@H](O)CC[C@@H](O)C[C@@H](O)CC(=O)O[C@H]1C)C[C@H](O)[C@H]2C(=O)O` [AMPHOTERICIN B], the MIC stood at 0.12 µg/mL (≈ 0.13 µM) in the experiment on Candida albicans; 0.12 µg/mL (≈ 0.13 µM) against Sporothrix schenckii; 0.06 µg/mL (≈ 0.0649 µM) against Cryptococcus neoformans; 0.12 µg/mL (≈ 0.13 µM) in experiment [3]; 0.12 µg/mL (≈ 0.13 µM) in the experiment with Candida parapsilosis; 0.5 µg/mL (≈ 0.541 µM) in the experiment on Aspergillus fumigatus.

`CCn1cc(C(=O)O)c(=O)c2cc(F)c(N3CCNCC3)cc21` [NORFLOXACIN]: the MIC against Escherichia coli (ATCC 9637, 24 h) is 0.36 µg/mL (≈ 1.13 µM); in the experiment on Klebsiella pneumoniae (ATCC 27736, 24 h), 0.36 µg/mL (≈ 1.13 µM); in the experiment with Staphylococcus aureus (ATCC 25923, 24 h), 0.78 µg/mL (≈ 2.44 µM); against Pseudomonas aeruginosa (ATCC BAA-427, 24 h), 0.3 µg/mL (≈ 0.939 µM).

`CN[C@H](CC(C)C)C(=O)N[C@H]1C(=O)N[C@@H](CC(N)=O)C(=O)N[C@H]2C(=O)N[C@H]3C(=O)N[C@H](C(=O)N[C@H](C(=O)O)c4cc(O)cc(O)c4-c4cc3ccc4O)[C@H](O)c3ccc(c(Cl)c3)Oc3cc2cc(c3O[C@@H]2O[C@H](CO)[C@@H](O)[C@H](O)[C@H]2O[C@H]2C[C@](C)(N)[C@H](O)[C@H](C)O2)Oc2ccc(cc2Cl)[C@H]1O` [VANCOMYCIN]: the MIC is above 50 µg/mL in the experiment with Escherichia coli (ATCC 9637, 24 h); above 50 µg/mL with Klebsiella pneumoniae (ATCC 27736, 24 h); 0.78 µg/mL (≈ 0.538 µM) in the experiment on Staphylococcus aureus (ATCC 25923, 24 h); above 50 µg/mL against Pseudomonas aeruginosa (ATCC BAA-427, 24 h).

Consider GENTAMICIN SULFATE, for which the minimum inhibitory concentration (MIC) against Escherichia coli was found to be 1.56 µg/mL; in the experiment on Klebsiella pneumoniae it was 1.56 µg/mL; in the experiment on Staphylococcus aureus, 1.56 µg/mL; in the experiment with Pseudomonas aeruginosa it was 0.39 µg/mL.

Take `OC(Cn1cncn1)(Cn1cncn1)c1ccc(F)cc1F` [FLUCONAZOLE]: the minimal inhibitory concentration (MIC) is 0.5 µg/mL (≈ 1.63 µM) with Candida albicans; 2 µg/mL (≈ 6.53 µM) in the experiment on Sporothrix schenckii; 1 µg/mL (≈ 3.27 µM) against Cryptococcus neoformans; 1 µg/mL (≈ 3.27 µM) in [3]; 1 µg/mL (≈ 3.27 µM) with Candida parapsilosis; 2 µg/mL (≈ 6.53 µM) in the experiment with Aspergillus fumigatus.
